The supplement of paper PMC11451515

System: NOMO1
Test: cell viability relative to DMSO control; higher = less cytotoxic
Conditions: 48 h
Procedure, shortened: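 Viability is a per-plate percentage relative to DMSO wells, with cell-free wells as background. CellTiter-Glo One luminescence was read after 48 h at 37°C on 1536-well plates (5 μl) of NOMO1 or SEM (500 cells/well) or P12-Ichikawa (1000 cells/well) leukemia cells. The cells had been adapted for at least four passages in each medium and pin-dosed with library compounds in DMSO from 47 μM to 0.79 nM in 11 threefold steps.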

[1] = HPLM + 10% dialyzed FBS, 0.000781 µM
[2] = HPLM + 10% dialyzed FBS, 0.00234 µM
[3] = HPLM + 10% dialyzed FBS, 0.00702 µM
[4] = HPLM + 10% dialyzed FBS, 0.0211 µM
[5] = HPLM + 10% dialyzed FBS, 0.0632 µM
[6] = HPLM + 10% dialyzed FBS, 0.19 µM
[7] = HPLM + 10% dialyzed FBS, 0.569 µM
[8] = HPLM + 10% dialyzed FBS, 1.71 µM
[9] = HPLM + 10% dialyzed FBS, 5.12 µM
[10] = HPLM + 10% dialyzed FBS, 15.4 µM
[11] = HPLM + 10% dialyzed FBS, 46.1 µM
[12] = RPMI 5 mM glucose + 10% FBS, 0.000781 µM
[13] = RPMI 5 mM glucose + 10% FBS, 0.00234 µM
[14] = RPMI 5 mM glucose + 10% FBS, 0.00702 µM
[15] = RPMI 5 mM glucose + 10% FBS, 0.0211 µM
[16] = RPMI 5 mM glucose + 10% FBS, 0.0632 µM
[17] = RPMI 5 mM glucose + 10% FBS, 0.19 µM
[18] = RPMI 5 mM glucose + 10% FBS, 0.569 µM
[19] = RPMI 5 mM glucose + 10% FBS, 1.71 µM
[20] = RPMI 5 mM glucose + 10% FBS, 5.12 µM
[21] = RPMI 5 mM glucose + 10% FBS, 15.4 µM
[22] = RPMI 5 mM glucose + 10% FBS, 46.1 µM
[23] = RPMI 5 mM glucose + 10% dialyzed FBS, 0.000781 µM
[24] = RPMI 5 mM glucose + 10% dialyzed FBS, 0.00234 µM
[25] = RPMI 5 mM glucose + 10% dialyzed FBS, 0.00702 µM
[26] = RPMI 5 mM glucose + 10% dialyzed FBS, 0.0211 µM
[27] = RPMI 5 mM glucose + 10% dialyzed FBS, 0.0632 µM
[28] = RPMI 5 mM glucose + 10% dialyzed FBS, 0.19 µM
[29] = RPMI 5 mM glucose + 10% dialyzed FBS, 0.569 µM
[30] = RPMI 5 mM glucose + 10% dialyzed FBS, 1.71 µM
[31] = RPMI 5 mM glucose + 10% dialyzed FBS, 5.12 µM
[32] = RPMI 5 mM glucose + 10% dialyzed FBS, 15.4 µM
[33] = RPMI 5 mM glucose + 10% dialyzed FBS, 46.1 µM

Clc1ccc(C2(c3ccc(-c4cn[nH]c4)cc3)CCNCC2)cc1
cell viability [1]: 80.5%
cell viability [2]: 101%
cell viability [3]: 111%
cell viability [4]: 100%
cell viability [5]: 100%
cell viability [6]: 98.2%
cell viability [7]: 96.6%
cell viability [8]: 91.9%
cell viability [9]: 69.9%
cell viability [10]: 63.3%
cell viability [11]: 62.7%
cell viability [12]: 80.2%
cell viability [13]: 81.3%
cell viability [14]: 86.4%
cell viability [15]: 83.8%
cell viability [16]: 90.8%
cell viability [17]: 89.2%
cell viability [18]: 98.9%
cell viability [19]: 77.9%
cell viability [20]: 77.6%
cell viability [21]: 65.6%
cell viability [22]: 55.3%
cell viability [23]: 86.7%
cell viability [24]: 99.2%
cell viability [25]: 83.4%
cell viability [26]: 93.5%
cell viability [27]: 99%
cell viability [28]: 103%
cell viability [29]: 81.4%
cell viability [30]: 72.2%
cell viability [31]: 70.3%
cell viability [32]: 59.9%
cell viability [33]: 53.7%

COc1cc2c(Nc3ccc(NC(=O)c4ccccc4)cc3)ncnc2cc1OCCCN1CCOCC1
cell viability [1]: 122%
cell viability [2]: 124%
cell viability [3]: 128%
cell viability [4]: 126%
cell viability [5]: 137%
cell viability [6]: 133%
cell viability [7]: 144%
cell viability [8]: 122%
cell viability [9]: 103%
cell viability [10]: 114%
cell viability [11]: 115%

COc1cc2ncnc(-n3nc(-c4ccccn4)nc3N)c2cc1OC
cell viability [1]: 82.3%
cell viability [2]: 102%
cell viability [3]: 111%
cell viability [4]: 101%
cell viability [5]: 110%
cell viability [6]: 93.7%
cell viability [7]: 95.2%
cell viability [8]: 112%
cell viability [9]: 86.3%
cell viability [10]: 74.8%
cell viability [11]: 0.936%
cell viability [12]: 83.5%
cell viability [13]: 86.2%
cell viability [14]: 92.7%
cell viability [15]: 101%
cell viability [16]: 88.6%
cell viability [17]: 96.3%
cell viability [18]: 84.9%
cell viability [19]: 99.3%
cell viability [20]: 84.7%
cell viability [21]: 78%
cell viability [22]: 1.29%
cell viability [23]: 82.5%
cell viability [24]: 89.4%
cell viability [25]: 93%
cell viability [26]: 110%
cell viability [27]: 98.4%
cell viability [28]: 96.7%
cell viability [29]: 98.5%
cell viability [30]: 94.5%
cell viability [31]: 81.8%
cell viability [32]: 76.4%
cell viability [33]: 3.64%

CCCCN(CCCC)CCC(O)c1cc2c(Cl)cc(Cl)cc2c2cc(C(F)(F)F)ccc12 (stereo not drawn)
cell viability [1]: 115%
cell viability [2]: 115%
cell viability [3]: 115%
cell viability [4]: 124%
cell viability [5]: 119%
cell viability [6]: 138%
cell viability [7]: 134%
cell viability [8]: 121%
cell viability [9]: 131%
cell viability [10]: 126%
cell viability [11]: 123%
cell viability [12]: 117%
cell viability [13]: 111%
cell viability [14]: 119%
cell viability [15]: 107%
cell viability [16]: 106%
cell viability [17]: 126%
cell viability [18]: 128%
cell viability [19]: 121%
cell viability [20]: 121%
cell viability [21]: 121%
cell viability [22]: 115%
cell viability [23]: 116%
cell viability [24]: 109%
cell viability [25]: 121%
cell viability [26]: 126%
cell viability [27]: 121%
cell viability [28]: 115%
cell viability [29]: 135%
cell viability [30]: 116%
cell viability [31]: 118%
cell viability [32]: 122%
cell viability [33]: 116%

COc1cc2c(N3CCN(C(=O)Nc4ccc(OC(C)C)cc4)CC3)ncnc2cc1OCCCN1CCCCC1
cell viability [1]: 68.3%
cell viability [2]: 89.2%
cell viability [3]: 85.9%
cell viability [4]: 88.7%
cell viability [5]: 83.3%
cell viability [6]: 87.7%
cell viability [7]: 112%
cell viability [8]: 94.2%
cell viability [9]: 95.2%
cell viability [10]: 47.4%
cell viability [11]: 41.2%
cell viability [12]: 73.1%
cell viability [13]: 71.7%
cell viability [14]: 84.7%
cell viability [15]: 74.5%
cell viability [16]: 79.4%
cell viability [17]: 83.8%
cell viability [18]: 86.3%
cell viability [19]: 77.5%
cell viability [20]: 75.4%
cell viability [21]: 40%
cell viability [22]: 67.3%
cell viability [23]: 79.3%
cell viability [24]: 80.9%
cell viability [25]: 75.4%
cell viability [26]: 85.8%
cell viability [27]: 80.9%
cell viability [28]: 74%
cell viability [29]: 89.7%
cell viability [30]: 93.7%
cell viability [31]: 85.5%
cell viability [32]: 43.5%
cell viability [33]: 55.3%

C[C@H]([C@H](O)CCC(C)(C)O)[C@H]1CC[C@@]2(O)C/3=C/C(=O)[C@@H]4C[C@@H](O)[C@@H](O)C[C@]4(C)[C@H]3CC[C@]12C
cell viability [12]: 112%
cell viability [13]: 115%
cell viability [14]: 118%
cell viability [15]: 107%
cell viability [16]: 106%
cell viability [17]: 112%
cell viability [18]: 121%
cell viability [19]: 104%
cell viability [20]: 119%
cell viability [21]: 109%
cell viability [22]: 104%
cell viability [23]: 122%
cell viability [24]: 127%
cell viability [25]: 125%
cell viability [26]: 137%
cell viability [27]: 112%
cell viability [28]: 121%
cell viability [29]: 123%
cell viability [30]: 131%
cell viability [31]: 125%
cell viability [32]: 131%
cell viability [33]: 117%

CCC1=C[C@@H]2CN(C1)Cc1c([nH]c3ccccc13)[C@@](C(=O)OC)(c1cc3c(cc1OC)N(C)[C@H]1[C@@](O)(C(=O)OC)[C@H](OC(C)=O)[C@]4(CC)C=CCN5CC[C@]31[C@@H]54)C2
cell viability [1]: 127%
cell viability [2]: 119%
cell viability [3]: 108%
cell viability [4]: 96.9%
cell viability [5]: 49.3%
cell viability [6]: 34.5%
cell viability [7]: 38%
cell viability [8]: 34.5%
cell viability [9]: 38.4%
cell viability [10]: 47%
cell viability [11]: 27.4%
cell viability [12]: 106%
cell viability [13]: 98.3%
cell viability [14]: 98.9%
cell viability [15]: 99.3%
cell viability [16]: 70.5%
cell viability [17]: 20.6%
cell viability [18]: 21.1%
cell viability [19]: 23.4%
cell viability [20]: 22.4%
cell viability [21]: 29.2%
cell viability [22]: 18.9%
cell viability [23]: 120%
cell viability [24]: 114%
cell viability [25]: 114%
cell viability [26]: 107%
cell viability [27]: 86.5%
cell viability [28]: 18.8%
cell viability [29]: 25.7%
cell viability [30]: 26.5%
cell viability [31]: 29%
cell viability [32]: 27.8%
cell viability [33]: 20.5%
